In patent US20260265233A1, “BENZOTHIOPHENE DERIVATIVES AS RXFP1 AGONISTS” (BRISTOL-MYERS SQUIBB COMPANY, priority 2021, published 2026) one finds EC50 data, which are given here for 18 compounds.

The target of this assay is T1, human RXFP1 (Homo sapiens, UniProt Q9HBX9).
T1 construct: expressed in transfected cells
T1 sequence (Q9HBX9 1-757): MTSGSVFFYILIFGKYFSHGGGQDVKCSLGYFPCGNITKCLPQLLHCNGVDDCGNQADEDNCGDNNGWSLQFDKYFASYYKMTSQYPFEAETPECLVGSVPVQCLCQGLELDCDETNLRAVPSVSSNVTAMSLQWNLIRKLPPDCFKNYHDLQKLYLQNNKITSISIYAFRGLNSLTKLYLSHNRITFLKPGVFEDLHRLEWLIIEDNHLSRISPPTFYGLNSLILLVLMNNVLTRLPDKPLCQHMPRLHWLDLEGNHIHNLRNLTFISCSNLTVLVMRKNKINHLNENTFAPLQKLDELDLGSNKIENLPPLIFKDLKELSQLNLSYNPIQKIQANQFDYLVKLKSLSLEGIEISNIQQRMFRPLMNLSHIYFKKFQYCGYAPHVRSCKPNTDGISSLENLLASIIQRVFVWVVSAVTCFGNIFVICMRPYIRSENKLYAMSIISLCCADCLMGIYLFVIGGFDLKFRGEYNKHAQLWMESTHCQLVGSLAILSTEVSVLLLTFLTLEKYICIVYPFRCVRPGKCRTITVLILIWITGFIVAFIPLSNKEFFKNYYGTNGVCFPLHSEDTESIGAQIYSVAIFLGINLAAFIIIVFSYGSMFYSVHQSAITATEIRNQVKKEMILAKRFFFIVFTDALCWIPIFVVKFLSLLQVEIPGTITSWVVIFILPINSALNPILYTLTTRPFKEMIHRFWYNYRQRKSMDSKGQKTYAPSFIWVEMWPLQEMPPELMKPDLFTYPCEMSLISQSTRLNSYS
The assay is described as follows: hRXFP1 HEK293 cAMP assay (HTRF). The note with it: HEK293 cells stably expressing human RXFP1; 30 min at rt; intracellular cAMP by HTRF. Type of assay: cell-based. An outline of the steps: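 Agonism is measured as cAMP by HTRF, quantified from a standard curve via the 665/590 nm ratio and fitted with a four-parameter logistic equation. Compounds (0.010 nM to 50 μM final, 2% DMSO) were applied for 30 min at rt to human RXFP1-expressing HEK293 cells in assay buffer containing 0.5 mM IBMX.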
(In general: cAMP levels reflect the balance of adenylyl cyclase and phosphodiesterase activity.)

In the case of `COc1ccc(CNC(c2ccc(F)c(-c3ccc(OC)c(C(=O)Nc4c(C(=O)Nc5ccc(F)c(C(F)(F)F)c5)sc5cc(C(F)(F)F)ccc45)c3)c2)C(F)(F)F)cc1OC` (single isomer, unassigned) [Example 114, 3-(5′-(1-((3,4-dimethoxybenzyl)amino)-2,2,2-trifluoroethyl)-2′-fluoro-4-methoxy-[1,1′-biphenyl]-3-carboxamido)-N-(4-fluoro-3-(trifluoromethyl)phenyl)-6-(trifluoromethyl) benzo[b] thiophene-2-carboxamide], the EC50 (as a rule, the concentration at which the effect is half-maximal) was 22.5 nM.

As to `COc1ccc(-c2cc(C(=O)O)ccc2F)cc1C(=O)Nc1c(C(=O)Nc2ccc(F)c(C(F)(F)F)c2)sc2ccc(C(F)(F)F)cc12` [Example 214, 6-fluoro-3′-((2-((4-fluoro-3-(trifluoromethyl)phenyl)carbamoyl)-5-(trifluoromethyl)benzo[b]thiophen-3-yl)carbamoyl)-4′-methoxy-[1,1′-biphenyl]-3-carboxylic acid], the EC50 was found to be 2150 nM.

Regarding `COc1ccc(C#CC(C)(C)O)cc1C(=O)Nc1c(C(=O)Nc2ccc(F)c(C(F)(F)F)c2)sc2cc(C(F)(F)F)ccc12` [Example 124, N-(4-fluoro-3-(trifluoromethyl)phenyl)-3-(5-(3-hydroxy-3-methylbut-1-yn-1-yl)-2-methoxybenz-amido)-6-(trifluoromethyl) benzo[b] thiophene-2-carboxamide], the EC50 was 560 nM.

Consider `COc1ccc(C2CC3CCC(C2)N3CC(N)=O)cc1C(=O)Nc1c(C(=O)Nc2ccc(F)c(C(F)(F)F)c2)sc2cc(C(F)(F)F)ccc12` (stereo not drawn) [Example 192, 3-(5-(8-(2-amino-2-oxoethyl)-8-azabicyclo[3.2.1]octan-3-yl)-2-methoxy-benzamido)-N-(4-fluoro-3-(trifluoromethyl)phenyl)-6-(trifluoromethyl) benzo[b] thiophene-2-carboxamide], for which the midpoint of the response, the EC50, lay at 889 nM.

Turning to `COc1ccc(N2CCCC(C(=O)NCC(C)(C)O)C2)cc1C(=O)Nc1c(C(=O)Nc2ccc(F)c(C(F)(F)F)c2)sc2cc(C(F)(F)F)ccc12` (single isomer, unassigned) [Example 8, 1-(3-((2-((4-fluoro-3-(trifluoromethyl)phenyl)carbamoyl)-6-(trifluoromethyl)benzo[b]thiophen-3-yl)carbamoyl)-4-methoxyphenyl)-N-(2-hydroxy-2-methylpropyl) piperidine-3-carboxamide], the response was half-maximal at 2020 nM (EC50).

`COc1ccc(C2=NOC3CN(CC(C)(C)O)CC23)cc1C(=O)Nc1c(C(=O)Nc2ccc(F)c(C(F)(F)F)c2)sc2cc(C(F)(F)F)ccc12` (single isomer, unassigned) [Example 53, N-(4-fluoro-3-(trifluoromethyl)phenyl)-3-(5-(5-(2-hydroxy-2-methylpropyl)-3a, 5,6,6a-tetrahydro-4H-pyrrolo[3,4-d]isoxazol-3-yl)-2-methoxybenzamido)-6-(trifluoromethyl)benzo[b]thiophene-2-carboxamide]: the EC50 is 71 nM.

Compound `COc1ccc(-c2cccc(C(NC(=O)C3CCOCC3)C(=O)O)c2)cc1C(=O)Nc1c(C(=O)Nc2ccc(F)c(C(F)(F)F)c2)sc2cc(C(F)(F)F)ccc12` (single isomer, unassigned) [Example 25, 2-(3′-((2-((4-fluoro-3-(trifluoromethyl)phenyl)carbamoyl)-6-(trifluoromethyl)benzo[b]thiophen-3-yl)carbamoyl)-4′-methoxy-[1, 1′-biphenyl]-3-yl)-2-(tetrahydro-2H-pyran-4-carboxamido) acetic acid] had an EC50 of 3.8 nM.

In turn, `COc1ccc(C2CCN(CCS(C)(=O)=O)C2)cc1C(=O)Nc1c(C(=O)Nc2ccc(F)c(C(F)(F)F)c2)sc2cc(C(F)(F)F)ccc12` (single isomer, unassigned) [Example 153, N-(4-fluoro-3-(trifluoromethyl)phenyl)-3-(2-methoxy-5-(1-(2-(methylsulfonyl)ethyl)pyrrolidin-3-yl)benzamido)-6-(trifluoromethyl) benzo[b] thiophene-2-carboxamide] displayed an EC50 of 314 nM.

Consider `COc1ccc(N2CCC3(C2)CN(C2COC2)C3)cc1C(=O)Nc1c(C(=O)Nc2ccc(F)c(C(F)(F)F)c2)sc2cc(C(F)(F)F)ccc12` [Example 208, N-(4-fluoro-3-(trifluoromethyl)phenyl)-3-(2-methoxy-5-(2-(oxetan-3-yl)-2,6-diazaspiro[3.4]octan-6-yl)benzamido)-6-(trifluoromethyl) benzo[b] thiophene-2-carboxamide], for which the response was half-maximal at 1480 nM (EC50).

Consider `COc1ccc(N2CCC3(CN(CCS(C)(=O)=O)C3)C2)cc1C(=O)Nc1c(C(=O)Nc2ccc(F)c(C(F)(F)F)c2)sc2cc(C(F)(F)F)ccc12` [Example 194, N-(4-fluoro-3-(trifluoromethyl)phenyl)-3-(2-methoxy-5-(2-(2-(methylsulfonyl)ethyl)-2,6-diazaspiro[3.4]octan-6-yl)benzamido)-6-(trifluoromethyl) benzo[b] thiophene-2-carboxamide], for which the EC50 was found to be 746 nM.

Compound `COc1ccc(S(=O)(=O)N2CCC[C@@H](NC(=O)CCO)C2)cc1C(=O)Nc1c(C(=O)Nc2ccc(F)c(C(F)(F)F)c2)sc2cc(C(F)(F)F)ccc12` [Example 189, (R)-N-(4-fluoro-3-(trifluoromethyl)phenyl)-3-(5-((3-(3-hydroxy-propanamido)piperidin-1-yl)sulfonyl)-2-methoxy-benzamido)-6-(trifluoromethyl) benzo[b] thiophene-2-carboxamide] displayed an EC50 of 491 nM.

As to `COc1ccc(C2CCN(CC(N)=O)C2)cc1C(=O)Nc1c(C(=O)Nc2ccc(F)c(C(F)(F)F)c2)sc2cc(C(F)(F)F)ccc12` (stereo not drawn) [Example 155, 3-{5-[1-(carbamoyl-methyl)pyrrolidin-3-yl]-2-methoxy-benzamido}-N-[4-fluoro-3-(trifluoromethyl)phenyl]-6-(trifluoromethyl)-1-benzothiophene-2-carboxamide], the EC50 amounted to 902 nM.

Turning to `COc1ccc(C2CCCC(O)C2)cc1C(=O)Nc1c(C(=O)Nc2ccc(F)c(C(F)(F)F)c2)sc2cc(C(F)(F)F)ccc12` (single isomer, unassigned) [Example 32, N-(4-fluoro-3-(trifluoromethyl)phenyl)-3-(5-(3-hydroxycyclohexyl)-2-methoxybenzamido)-6-(trifluoromethyl)benzo[b]thiophene-2-carboxamide], the concentration giving a half-maximal response (EC50) was found to be 718 nM.

As to `COc1ccc(N2CCCC(C(C)(C)O)C2)cc1C(=O)Nc1c(C(=O)Nc2ccc(F)c(C(F)(F)F)c2)sc2cc(C(F)(F)F)ccc12` (single isomer, unassigned) [Example 107, N-(4-fluoro-3-(trifluoromethyl)phenyl)-3-(5-(3-(2-hydroxypropan-2-yl)piperidin-1-yl)-2-methoxy-benzamido)-6-(trifluoromethyl) benzo[b] thiophene-2-carboxamide], the EC50 turned out to be 918 nM.

`COc1ccc(C2CCN(C(=O)C3CC3(F)F)C2)cc1C(=O)Nc1c(C(=O)Nc2ccc(F)c(C(F)(F)F)c2)sc2cc(C(F)(F)F)ccc12` (stereo not drawn) [Example 134, 3-(5-(1-(2,2-difluorocyclo-propane-1-carbonyl)pyrrolidin-3-yl)-2-methoxy-benzamido)-N-(4-fluoro-3-(trifluoromethyl)phenyl)-6-(trifluoromethyl) benzo[b] thiophene-2-carboxamide] yielded an EC50 of 634 nM.

`COc1ccc(/C=C\C(=O)O)cc1C(=O)Nc1c(C(=O)Nc2ccc(F)c(C(F)(F)F)c2)sc2cc(C(F)(F)F)ccc12` [Example 45, (Z)-3-(3-((2-((4-fluoro-3-(trifluoromethyl)phenyl)carbamoyl)-6-(trifluoromethyl)benzo[b]thiophen-3-yl)carbamoyl)-4-methoxyphenyl) acrylic acid] had an EC50 of 975 nM.

In turn, `COc1ccc(C(=O)NCCO)cc1C(=O)Nc1c(C(=O)Nc2ccc(F)c(C(F)(F)F)c2)sc2cc(C(F)(F)F)ccc12` [Example 217, N3-(2-((4-fluoro-3-(trifluoromethyl)phenyl)carbamoyl)-6-(trifluoromethyl)benzo[b]thiophen-3-yl)-N1-(2-hydroxyethyl)-4-methoxy-isophthalamide] yielded an EC50 of 2290 nM.

`COc1ccc(C2=NOC3CS(=O)(=O)CC23)cc1C(=O)Nc1c(C(=O)Nc2ccc(F)c(C(F)(F)F)c2)sc2cc(C(F)(F)F)ccc12` (stereo not drawn) [Example 52, 3-(5-(5,5-dioxido-3a, 4,6,6a-tetrahydrothieno[3,4-d]isoxazol-3-yl)-2-methoxybenzamido)-N-(4-fluoro-3-(trifluoromethyl)phenyl)-6-(trifluoromethyl)benzo[b]thiophene-2-carboxamide] returned an EC50 of 166 nM.
